Experimental data as given in publication PMC5837865 (Clinical cancer research : an official journal of the …, 2017).
Values after ≈ are worked out from the molar mass of the structure shown. Where two headings read alike, the source gives them in different places.

Assays:
[1] = Stability in simulated gastric fluid; type: in vitro ADME; conditions: 10 µM, SGF pH 1.2, over 1h, LC-MS/MS
[2] = Stability in simulated intestinal fluid; type: in vitro ADME; conditions: 10 µM
CYP1A2 = CYP1A2 (Homo sapiens, UniProt P05177); experiment: Cytochrome P450 inhibition; type: biochemical
CYP2A6 = CYP2A6 (Homo sapiens, UniProt P11509); experiment: Cytochrome P450 inhibition; type: biochemical; conditions: read-out: IC50 CYP2A6
CYP2B6 = CYP2B6 (Homo sapiens, UniProt P20813); experiment: Cytochrome P450 inhibition; type: biochemical; conditions: read-out: IC50 CYP2B6
CYP2C8 = CYP2C8 (Homo sapiens, UniProt P10632); experiment: Cytochrome P450 inhibition; type: biochemical; conditions: read-out: IC50 CYP2C8
CYP2C9 = CYP2C9 (Homo sapiens, UniProt P11712); experiment: Cytochrome P450 inhibition; type: biochemical; conditions: read-out: IC50 CYP2C9
CYP2C19 = CYP2C19 (Homo sapiens, UniProt P33261); experiment: Cytochrome P450 inhibition; type: biochemical; conditions: read-out: IC50 CYP2C19
CYP2D6 = CYP2D6 (Homo sapiens, UniProt P10635); experiment: Cytochrome P450 inhibition; type: biochemical; conditions: read-out: IC50 CYP2D6
CYP2E1 = CYP2E1 (Homo sapiens, UniProt P05181); experiment: Cytochrome P450 inhibition; type: biochemical; conditions: read-out: IC50 CYP2E1
CYP3A4 = CYP3A4 (Homo sapiens, UniProt P08684); experiment: Cytochrome P450 inhibition; type: biochemical; conditions: read-out: IC50 CYP3A4
[3] = Blood to plasma concentration ratio; type: in vitro ADME; conditions: BALB/c mice blood
[4] = type: in vivo, BALB/c mice; conditions: for Cmax / time to reach peak plasma concentration: plasma, label = analyte measured
[5] = type: in vivo, BALB/c mice
PC-3 cells [6] = experiment: Clonogenic; type: cell-based, human; conditions: 2 mg/ml, PC-3, pH 7.4
[7] = tested on: cancer cells of varying tissue-origin; experiment: Proliferation and colony formation, cancer cells of varying tissue-origin; type: cell-based
PC-3 cells [8] = experiment: Intracellular levels of PhosE and Etn by LC-MS/MS; type: cell-based, human; conditions: PC-3, 1 mg/ml treatment, 48h, pH 7.4
Acute oral toxicity = type: in vivo, Sprague-Dawley (SD) rats
PC-3 cells [9] = experiment: MTT cell proliferation assay; type: cell-based, human; conditions: pH 7.4
[10] = tested on: PC-3, DU145 and C42B cells; experiment: MTT cell survival, prostate cancer lines; type: cell-based, human; conditions: 0.5 mg/ml, 48h, pH 7.4; range over PC-3, DU145 and C42B
RWPE-1 cells = experiment: MTT cell survival, near-normal prostate cells; type: cell-based; conditions: 0.5 mg/ml, 48h, pH 7.4, RWPE-1
MDA-MB-468 = experiment: MTT cell proliferation assay; type: cell-based; conditions: MDA-MB-468 (breast)
OVCAR-3 = experiment: MTT cell proliferation assay; type: cell-based; conditions: OVCAR-3 (ovary)
CFPAC = experiment: MTT cell proliferation assay; type: cell-based; conditions: CFPAC (pancreas)
PC-3-luc xenografts = experiment: PC-3-luc prostate cancer xenograft tumor growth; type: in vivo, athymic male BALB/c mice
DU145 xenografts = experiment: DU145 prostate cancer xenograft tumor growth; type: in vivo, athymic male BALB/c mice
HCT116 xenograft = experiment: HCT116 colon cancer xenograft tumor growth; type: in vivo, mice; conditions: 2 weeks
CK KD PC-3 cells = experiment: MTT cell survival in choline kinase knockdown cells; type: cell-based, human; conditions: 0.5 mg/ml, CK KD (siRNA) PC-3 cells, 48h
PC-3 cells [11] = experiment: Annexin-V flow cytometry; type: cell-based, human; conditions: control ~8%
p53 transcript = experiment: RT-PCR transcript levels; type: cell-based, human; conditions: PC-3, 2 mg/ml, 48h
HIF1-α transcripts = experiment: RT-PCR transcript levels; type: cell-based, human; conditions: PC-3, 2 mg/ml, 48h
Ki67 = Ki67 immunohistochemistry of tumor sections; type: in vivo, athymic male BALB/c mice; conditions: PC-3-luc xenografts, 40 mg/kg; control tumors ~62%
PC-3 cells [12] = experiment: Oxygen consumption rate; type: cell-based, human; conditions: PC-3, 2 mg/ml, 48h, 1 million cells/ml
PC-3-luc tumors = experiment: Glucose and glutamine levels in tumors by LC-MS/MS; type: in vivo, athymic male BALB/c mice; conditions: 40 mg/kg Etn-treated PC-3-luc tumors
PC-3 cells [13] = experiment: Intracellular glucose and glutamine levels in cultured cells; type: cell-based, human; conditions: PC-3, 2 mg/ml, 48h
HIF1-α = HIF1-α protein expression in tumors; type: in vivo, athymic male BALB/c mice; conditions: PC-3-luc xenografts, Etn-treated
[14] = Etn absorption from formulations of different pH/acid; type: in vivo; conditions: pH 5/7.4; H3PO4/HCl/H2SO4
[15] = 40 mg/kg oral gavage, pH 5, 4 weeks
[16] = after 4 weeks of 40 mg/kg oral Etn

CYP2B6, sequence (P20813 whole entry): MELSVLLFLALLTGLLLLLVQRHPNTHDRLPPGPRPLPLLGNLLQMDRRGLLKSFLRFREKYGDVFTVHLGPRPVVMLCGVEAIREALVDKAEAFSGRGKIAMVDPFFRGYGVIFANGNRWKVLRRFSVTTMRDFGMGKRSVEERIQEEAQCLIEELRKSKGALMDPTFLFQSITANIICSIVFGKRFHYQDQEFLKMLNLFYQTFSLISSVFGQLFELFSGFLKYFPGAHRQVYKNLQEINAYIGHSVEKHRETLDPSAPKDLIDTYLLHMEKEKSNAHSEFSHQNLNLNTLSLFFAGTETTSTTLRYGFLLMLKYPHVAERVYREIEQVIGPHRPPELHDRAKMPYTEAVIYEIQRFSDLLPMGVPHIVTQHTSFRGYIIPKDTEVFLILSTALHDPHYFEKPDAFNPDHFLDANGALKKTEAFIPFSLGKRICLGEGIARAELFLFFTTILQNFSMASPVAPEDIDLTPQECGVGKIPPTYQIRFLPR
CYP2C8, sequence (P10632 whole entry): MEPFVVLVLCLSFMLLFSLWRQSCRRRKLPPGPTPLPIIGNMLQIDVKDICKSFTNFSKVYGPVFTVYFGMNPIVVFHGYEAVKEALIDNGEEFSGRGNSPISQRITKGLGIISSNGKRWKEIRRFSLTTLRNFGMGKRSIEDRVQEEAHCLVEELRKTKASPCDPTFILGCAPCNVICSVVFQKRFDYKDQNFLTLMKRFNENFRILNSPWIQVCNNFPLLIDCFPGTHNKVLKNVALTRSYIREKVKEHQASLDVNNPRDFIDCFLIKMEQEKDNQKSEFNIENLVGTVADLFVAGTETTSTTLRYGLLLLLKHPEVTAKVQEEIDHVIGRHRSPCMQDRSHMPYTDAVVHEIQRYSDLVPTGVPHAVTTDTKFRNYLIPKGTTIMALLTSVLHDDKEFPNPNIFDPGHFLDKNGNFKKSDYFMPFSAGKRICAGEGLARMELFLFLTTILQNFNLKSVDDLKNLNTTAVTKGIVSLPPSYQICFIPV
CYP2E1, sequence (P05181 whole entry): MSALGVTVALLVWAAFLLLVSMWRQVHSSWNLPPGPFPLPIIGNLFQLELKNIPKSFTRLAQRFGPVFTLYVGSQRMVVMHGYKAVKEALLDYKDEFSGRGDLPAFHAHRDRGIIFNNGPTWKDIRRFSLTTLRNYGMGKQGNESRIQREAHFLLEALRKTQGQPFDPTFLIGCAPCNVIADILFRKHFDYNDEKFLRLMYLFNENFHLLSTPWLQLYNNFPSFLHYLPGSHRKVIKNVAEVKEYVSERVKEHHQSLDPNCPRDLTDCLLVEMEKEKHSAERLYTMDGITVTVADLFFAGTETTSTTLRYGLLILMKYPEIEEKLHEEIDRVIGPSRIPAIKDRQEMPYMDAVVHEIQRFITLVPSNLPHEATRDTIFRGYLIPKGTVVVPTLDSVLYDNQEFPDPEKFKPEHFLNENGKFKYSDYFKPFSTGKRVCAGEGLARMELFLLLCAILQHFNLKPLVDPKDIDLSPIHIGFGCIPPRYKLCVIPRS
CYP3A4, sequence (P08684 whole entry): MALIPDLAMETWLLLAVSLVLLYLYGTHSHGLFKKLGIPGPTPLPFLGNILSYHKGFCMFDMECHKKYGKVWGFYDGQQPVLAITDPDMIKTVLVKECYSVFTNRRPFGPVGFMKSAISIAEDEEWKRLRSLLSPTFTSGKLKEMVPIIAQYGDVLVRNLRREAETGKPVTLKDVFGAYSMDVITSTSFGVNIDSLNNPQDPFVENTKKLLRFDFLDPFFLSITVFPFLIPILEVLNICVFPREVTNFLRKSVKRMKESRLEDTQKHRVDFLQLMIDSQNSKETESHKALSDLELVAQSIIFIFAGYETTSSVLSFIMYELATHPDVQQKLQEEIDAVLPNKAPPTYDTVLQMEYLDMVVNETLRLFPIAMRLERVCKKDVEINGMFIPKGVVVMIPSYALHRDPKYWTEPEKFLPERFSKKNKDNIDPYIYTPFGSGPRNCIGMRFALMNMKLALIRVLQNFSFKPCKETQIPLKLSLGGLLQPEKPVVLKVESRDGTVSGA
CYP2C9, sequence (P11712 whole entry): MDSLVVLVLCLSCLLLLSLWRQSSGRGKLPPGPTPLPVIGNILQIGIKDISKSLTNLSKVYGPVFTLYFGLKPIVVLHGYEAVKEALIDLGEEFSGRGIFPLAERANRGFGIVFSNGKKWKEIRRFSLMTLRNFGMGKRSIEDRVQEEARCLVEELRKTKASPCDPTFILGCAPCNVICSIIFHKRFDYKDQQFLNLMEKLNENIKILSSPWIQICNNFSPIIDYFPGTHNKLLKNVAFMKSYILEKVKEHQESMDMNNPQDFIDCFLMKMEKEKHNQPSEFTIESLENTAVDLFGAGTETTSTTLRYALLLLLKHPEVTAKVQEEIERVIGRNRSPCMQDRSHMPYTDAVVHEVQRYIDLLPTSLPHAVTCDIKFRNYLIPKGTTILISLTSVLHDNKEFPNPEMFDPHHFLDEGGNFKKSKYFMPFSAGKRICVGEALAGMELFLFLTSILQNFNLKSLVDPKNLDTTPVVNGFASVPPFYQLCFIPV
CYP2D6, sequence (P10635 whole entry): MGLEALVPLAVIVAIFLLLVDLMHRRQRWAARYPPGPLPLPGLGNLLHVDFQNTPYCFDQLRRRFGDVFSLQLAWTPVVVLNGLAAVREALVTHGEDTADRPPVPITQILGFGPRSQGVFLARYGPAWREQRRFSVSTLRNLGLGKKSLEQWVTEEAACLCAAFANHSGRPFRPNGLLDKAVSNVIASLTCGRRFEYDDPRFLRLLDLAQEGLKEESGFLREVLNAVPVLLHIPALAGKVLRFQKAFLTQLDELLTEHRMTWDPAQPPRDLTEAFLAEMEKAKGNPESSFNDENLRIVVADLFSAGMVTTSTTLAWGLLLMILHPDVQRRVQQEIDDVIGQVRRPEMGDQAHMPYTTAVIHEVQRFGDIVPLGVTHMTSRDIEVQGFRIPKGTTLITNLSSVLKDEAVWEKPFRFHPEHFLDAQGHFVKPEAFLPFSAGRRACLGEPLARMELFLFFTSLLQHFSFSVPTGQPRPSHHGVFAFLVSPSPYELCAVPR
CYP2C19, sequence (P33261 whole entry): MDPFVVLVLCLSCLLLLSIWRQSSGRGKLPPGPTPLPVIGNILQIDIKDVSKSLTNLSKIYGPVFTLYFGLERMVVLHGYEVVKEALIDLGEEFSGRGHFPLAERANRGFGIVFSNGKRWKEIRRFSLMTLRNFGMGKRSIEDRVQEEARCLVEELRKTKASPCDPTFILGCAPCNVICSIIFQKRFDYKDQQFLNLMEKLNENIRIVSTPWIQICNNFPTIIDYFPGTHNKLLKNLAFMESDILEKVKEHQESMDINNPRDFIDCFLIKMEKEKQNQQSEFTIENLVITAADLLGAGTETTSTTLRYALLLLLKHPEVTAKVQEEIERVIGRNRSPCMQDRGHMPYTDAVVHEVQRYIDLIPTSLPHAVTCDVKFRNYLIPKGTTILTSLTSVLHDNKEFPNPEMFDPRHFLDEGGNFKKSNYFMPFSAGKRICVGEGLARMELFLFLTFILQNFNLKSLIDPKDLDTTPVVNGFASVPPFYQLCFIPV
CYP2A6, sequence (P11509 whole entry): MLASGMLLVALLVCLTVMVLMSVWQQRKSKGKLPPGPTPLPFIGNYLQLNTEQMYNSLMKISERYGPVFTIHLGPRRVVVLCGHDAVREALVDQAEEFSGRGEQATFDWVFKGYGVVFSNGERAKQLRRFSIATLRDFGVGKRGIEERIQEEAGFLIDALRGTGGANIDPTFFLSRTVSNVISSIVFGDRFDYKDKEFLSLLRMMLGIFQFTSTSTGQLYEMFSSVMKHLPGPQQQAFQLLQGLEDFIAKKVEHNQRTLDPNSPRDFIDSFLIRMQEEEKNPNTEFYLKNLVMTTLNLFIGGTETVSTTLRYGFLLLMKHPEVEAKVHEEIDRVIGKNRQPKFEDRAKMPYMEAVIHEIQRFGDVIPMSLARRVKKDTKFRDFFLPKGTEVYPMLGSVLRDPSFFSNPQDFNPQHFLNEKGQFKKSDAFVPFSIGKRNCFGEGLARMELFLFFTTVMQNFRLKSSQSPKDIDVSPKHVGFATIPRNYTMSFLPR
CYP1A2, sequence (P05177 whole entry): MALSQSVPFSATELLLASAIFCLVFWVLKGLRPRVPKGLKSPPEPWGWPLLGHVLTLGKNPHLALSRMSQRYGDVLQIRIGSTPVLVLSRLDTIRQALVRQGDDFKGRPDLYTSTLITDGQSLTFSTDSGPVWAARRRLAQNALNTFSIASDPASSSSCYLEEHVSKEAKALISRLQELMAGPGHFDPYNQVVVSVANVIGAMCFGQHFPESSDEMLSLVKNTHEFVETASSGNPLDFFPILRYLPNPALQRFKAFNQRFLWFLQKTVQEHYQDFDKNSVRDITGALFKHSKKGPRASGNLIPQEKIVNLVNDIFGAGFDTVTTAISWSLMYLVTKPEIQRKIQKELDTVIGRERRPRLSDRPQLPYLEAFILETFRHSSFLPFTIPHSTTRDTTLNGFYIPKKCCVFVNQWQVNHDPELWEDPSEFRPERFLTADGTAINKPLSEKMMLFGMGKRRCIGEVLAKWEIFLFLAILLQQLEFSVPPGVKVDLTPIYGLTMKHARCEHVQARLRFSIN

NCCOP(=O)(O)O [PhosE, phosphoethanolamine]
stability in SGF [1]: stable
decrease in concentration in SIF ([2]; SIF pH 6.8, after 2h): ~ 35%
IC50 (CYP1A2): > 100 µM
IC50 (CYP2A6): > 100 µM
IC50 (CYP2B6): > 100 µM
IC50 (CYP2C8): > 100 µM
IC50 (CYP2C9): > 100 µM
IC50 (CYP2C19): > 100 µM
IC50 (CYP2D6): > 100 µM
IC50 (CYP2E1): > 100 µM
IC50 (CYP3A4): > 100 µM
partitioning into RBCs (blood to plasma concentration ratio) [3]: lack of preferential partitioning into RBCs
Cmax ([4]; after oral Etn 40 mg/kg): 0.55 µg/mL
time to reach peak plasma concentration ([4]; after oral Etn 40 mg/kg): 10 min
Cmax ([4]; after oral PhosE 60 mg/kg): 1.14 µg/mL
oral bioavailability ([4]; oral Etn 40 mg/kg, PhosE 60 mg/kg vs intravenous 2 and 3 mg/kg): 19%
volume of distribution (Vd) ([5]; intravenous PhosE 3 mg/kg): 4.82 L/kg
clearance (CL) ([5]; intravenous, Etn 2 mg/kg, PhosE 3 mg/kg): 101.92 mL/min/kg
effect on colony numbers compared to control cells (PC-3 cells [6]): ineffective
inhibition of proliferation and colony formation [7]: ineffective
increase of intracellular PhosE levels relative to control cells (PC-3 cells [8]): ~ 15 fold

NCCO [Etn, monoethanolamine]
stability in SGF [1]: stable
stability in SIF ([2]; SIF pH 6.8, over time (0-120 min), LC-MS/MS): remained unchanged
IC50 (CYP1A2; read-out: IC50 CYP1A2): > 100 µM
IC50 (CYP2A6): > 100 µM
IC50 (CYP2B6): > 100 µM
IC50 (CYP2C8): > 100 µM
IC50 (CYP2C9): > 100 µM
IC50 (CYP2C19): > 100 µM
IC50 (CYP2D6): > 100 µM
IC50 (CYP2E1): > 100 µM
IC50 (CYP3A4): > 100 µM
Cmax of Etn relative to Cmax of PhosE ([4]; after oral Etn 40 mg/kg): 32 fold
Cmax ([4]; after oral Etn 40 mg/kg): 17.37 µg/mL
time to reach peak plasma concentration ([4]; after oral Etn 40 mg/kg): 10 min
Cmax ([4]; after oral PhosE 60 mg/kg): 4.32 µg/mL
acute toxicity (Acute oral toxicity; single oral dose 5 g/kg (limit dose), male and female rats, monitored one week): does not induce any acute toxicity
survival after one week (Acute oral toxicity; single oral dose 5 g/kg, five male and five female rats): all rats were alive
reduction of cell survival (PC-3 cells [9]; 0.5 mg/ml, PC-3, 48h): ~ 38%
reduction in cell proliferation (PC-3 cells [9]; 1 mg/ml Etn alone, PC-3, 48h): ~ 33%
half-maximal concentration (IC50), cell proliferation (PC-3 cells [9]; PC-3, MTT, 48h): ~ 0.88 mg/ml
decrease in colony numbers (PC-3 cells [6]): ~ 97%
reduction of cell survival [10]: 30–52%
effect on cell survival (RWPE-1 cells): unaffected
IC50, cell proliferation (MDA-MB-468): 0.55 mg/mL (≈ 9 mM)
IC50, cell proliferation (OVCAR-3): 0.29 mg/mL (≈ 4.75 mM)
IC50, cell proliferation (CFPAC): 1.9 mg/mL (≈ 31.1 mM)
increase of intracellular PhosE levels relative to control cells (PC-3 cells [8]): ~ 40 fold
reduction in tumor volume (PC-3-luc xenografts; 40 mg/kg oral gavage, pH 5 (phosphoric acid), 4 weeks): ~ 67%
reduction in tumor weight (PC-3-luc xenografts; [15]): ~ 55%
change in body weight over treatment course (PC-3-luc xenografts; 40 mg/kg oral, 4 weeks, PC-3-luc tumor bearing mice): no apparent change in body weight
change in intratumoral Etn levels versus control mice (PC-3-luc xenografts; [16]): did not observe any significant change
intratumoral PhosE level, increase over control mice (PC-3-luc xenografts; [16]): ~ 38%
reduction in tumor volume (DU145 xenografts; [15]): ~ 42%
reduction in tumor weight (DU145 xenografts; [15]): ~ 29%
change in body weight over treatment course (DU145 xenografts; 40 mg/kg oral, 4 weeks, DU145 tumor bearing mice): no apparent change in body weight
decrease in tumor volume (HCT116 xenograft; 40 mg/kg oral gavage): ~ 44%
change in body weight over treatment course (HCT116 xenograft; 40 mg/kg oral, HCT116 tumor bearing mice): no apparent change in body weight
decrease in cell viability (CK KD PC-3 cells): ~ 11%
Annexin-V positive cells upon treatment (PC-3 cells [11]): ~ 25%
increase in p53 transcript levels compared to controls (p53 transcript): 1.2 fold
reduction in HIF1-α transcripts levels compared to control cells (HIF1-α transcripts): 50 fold
Ki67-positive cells in treated tumors (Ki67): ~ 40%
reduction of OCR compared to controls (PC-3 cells [12]): ~ 26%
glucose content in tumors versus control (PC-3-luc tumors): significantly reduced
glutamine content in tumors versus control (PC-3-luc tumors): significantly reduced
glucose content in cells versus control (PC-3 cells [13]): significantly reduced
glutamine content in cells versus control (PC-3 cells [13]): significantly reduced
HIF1-α protein expression in treated versus control tumors (HIF1-α): downregulation
dependence of absorption on formulation pH or acid [14]: independent of pH
